Measurements: US20110245104A1, “Method for screening the sensitizing properties of chemical compounds” (priority 2010, published 2011)

Tests used:
human skin excerpts = experiment: Labeling of human skin excerpts by caged haptens
Source text: The first step is that the molecules come into contact with the skin (the stratum corneum). Many of the reactive molecules react in the stratum corneum, something that can be seen in experiments with human skin excerpts and the caged (mBBr and dBBr) haptens. However, a significant proportion of the molecules penetrate further down to the suprabasal layers of the epidermis but also the follicular pathway is of importance for bringing xenobiotics into the skin. It is likely that the penetration is due both to the acidic pH of the stratum corneum (the molecules react more slowly when the pH is low), but also because many of the available groups have reacted. In the suprabasal layers, the haptens have a hard time penetrating the cells, as the cornification of the cells creates a thick, relatively impermeable envelope around the suprabasal cells. Consequently, the haptens penetrate down to the basal layer. Here, the cell membrane is much thinner and more fluidic and the molecules can thus enter the basal cells.

[1] = test system: serum amyloid P component (SAP); experiment: Serum amyloid P component (SAP) in sera of mice exposed to sensitizers; format: in vivo; settings: sera of mice exposed to sensitizer
[2] = test system: anti-nuclear antibodies (ANA); experiment: Anti-nuclear antibodies (ANA) in sera of mice topically exposed to haptens; format: in vivo; settings: topical exposure
keratins = experiment: Protein cross-linking by bidentate haptens (SDS gels of blebs); format: cell-based, human; settings: bidentate hapten
Source text: In SDS-PAGE experiments it was shown that thiol-, amine-, and arginine-reactive sensitizers give rise to blebs that contain the same proteins. […] It was also shown that the sensitizing compounds also modify other proteins and that these proteins are released in blebs, as visualized by fluorescent bands on SDS-gels.

Cc1c(CBr)n2c(CBr)c(C)c(=O)n2c1=O [dBBr, dibromobimane]
Labeling of cells in the basal layer (human skin excerpts): cells in the basal layer are labeled
Level of serum amyloid P component (SAP) [1]: increased levels
Level of anti-nuclear antibodies (ANA) in sera [2]: increased levels
Cross-links between keratins (keratins): cause cross-links
